According to PubChem BioAssay (NCI):
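Abbreviation: GI50, concentration required for 50% inhibition of growth. TGI: concentration producing complete growth inhibition.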

How the values were obtained:
Test in all cases: NCI tumour cell line growth inhibition, 384-well format
KM12 colon = test system: KM12 colon
SN12C renal = test system: SN12C renal
SNB-75 CNS = test system: SNB-75 CNS
OVCAR-8 ovarian = test system: OVCAR-8 ovarian
HCT-116 colon = test system: HCT-116 colon
SK-MEL-2 melanoma = test system: SK-MEL-2 melanoma
NCI-H226 lung = test system: NCI-H226 lung
COLO 205 colon = test system: COLO 205 colon
ACHN renal = test system: ACHN renal
SK-MEL-5 melanoma = test system: SK-MEL-5 melanoma
CAKI-1 renal = test system: CAKI-1 renal
HS 578T breast = test system: HS 578T breast
SK-MEL-28 melanoma = test system: SK-MEL-28 melanoma
MDA-MB-231 breast = test system: MDA-MB-231 breast
IGROV1 ovarian = test system: IGROV1 ovarian
SK-OV-3 ovarian = test system: SK-OV-3 ovarian
NCI-H322M lung = test system: NCI-H322M lung
UACC-62 melanoma = test system: UACC-62 melanoma
BT-549 breast = test system: BT-549 breast
NCI-H23 lung = test system: NCI-H23 lung
MALME-3M melanoma = test system: MALME-3M melanoma
DU-145 prostate = test system: DU-145 prostate
OVCAR-5 ovarian = test system: OVCAR-5 ovarian
TK-10 renal = test system: TK-10 renal
MCF7 breast = test system: MCF7 breast
HCC-2998 colon = test system: HCC-2998 colon
SR leukemia = test system: SR leukemia
EKVX NSCLC = test system: EKVX NSCLC
NCI-H460 NSCLC = test system: NCI-H460 NSCLC
M14 melanoma = test system: M14 melanoma
K-562 leukemia = test system: K-562 leukemia
MDA-MB-435 melanoma = test system: MDA-MB-435 melanoma
UACC-257 melanoma = test system: UACC-257 melanoma
SW-620 colon = test system: SW-620 colon
NCI-H522 lung = test system: NCI-H522 lung
SF-295 CNS = test system: SF-295 CNS
MOLT-4 leukemia = test system: MOLT-4 leukemia
A498 renal = test system: A498 renal
HOP-62 NSCLC = test system: HOP-62 NSCLC
HL-60(TB) leukemia = test system: HL-60(TB) leukemia
U251 glioblastoma = test system: U251 glioblastoma
SF-539 CNS = test system: SF-539 CNS
A549 NSCLC = test system: A549 NSCLC
CCRF-CEM leukemia = test system: CCRF-CEM leukemia
PC-3 prostate = test system: PC-3 prostate
786-0 renal = test system: 786-0 renal
OVCAR-3 ovarian = test system: OVCAR-3 ovarian

CC(C)(O)C1CCC(Nc2ccc3ncc(-c4cccc(C(F)(F)F)c4)n3n2)CC1 (centres undefined)
GI50 (KM12 colon): 51 nM | TGI (KM12 colon): 2130 nM | GI50 (SN12C renal): 1480 nM | TGI (SN12C renal): 5000 nM | GI50 (SNB-75 CNS): 1450 nM | TGI (SNB-75 CNS): 4140 nM | GI50 (OVCAR-8 ovarian): 1770 nM | TGI (OVCAR-8 ovarian): 4710 nM | GI50 (HCT-116 colon): 1700 nM | TGI (HCT-116 colon): 3370 nM | GI50 (SK-MEL-2 melanoma): 1320 nM | TGI (SK-MEL-2 melanoma): 2620 nM | GI50 (NCI-H226 lung): 1000 nM | TGI (NCI-H226 lung): 2660 nM | GI50 (COLO 205 colon): 2470 nM | TGI (COLO 205 colon): 8700 nM | GI50 (ACHN renal): 1630 nM | TGI (ACHN renal): 5010 nM | GI50 (SK-MEL-5 melanoma): 948 nM | TGI (SK-MEL-5 melanoma): 2320 nM | GI50 (CAKI-1 renal): 1490 nM | TGI (CAKI-1 renal): 3390 nM | GI50 (HS 578T breast): 364 nM | TGI (HS 578T breast): 1660 nM | GI50 (SK-MEL-28 melanoma): 1370 nM | TGI (SK-MEL-28 melanoma): 2690 nM | GI50 (MDA-MB-231 breast): 1130 nM | TGI (MDA-MB-231 breast): 3420 nM | GI50 (IGROV1 ovarian): 1910 nM | TGI (IGROV1 ovarian): 5230 nM | GI50 (SK-OV-3 ovarian): 1120 nM | TGI (SK-OV-3 ovarian): 2890 nM | GI50 (NCI-H322M lung): 1730 nM | TGI (NCI-H322M lung): 3930 nM | GI50 (UACC-62 melanoma): 1500 nM | TGI (UACC-62 melanoma): 2840 nM | GI50 (BT-549 breast): 1450 nM | TGI (BT-549 breast): 3880 nM | GI50 (NCI-H23 lung): 1460 nM | TGI (NCI-H23 lung): 3300 nM | GI50 (MALME-3M melanoma): 833 nM | TGI (MALME-3M melanoma): 2950 nM | GI50 (DU-145 prostate): 2830 nM | TGI (DU-145 prostate): 12300 nM | GI50 (OVCAR-5 ovarian): 1820 nM | TGI (OVCAR-5 ovarian): 6510 nM | GI50 (TK-10 renal): 1390 nM | TGI (TK-10 renal): 6840 nM | GI50 (MCF7 breast): 1490 nM | TGI (MCF7 breast): 3120 nM | GI50 (HCC-2998 colon): 1220 nM | TGI (HCC-2998 colon): 2750 nM | GI50 (SR leukemia): 588 nM | TGI (SR leukemia): 1690 nM | GI50 (EKVX NSCLC): 1670 nM | TGI (EKVX NSCLC): 5660 nM | GI50 (NCI-H460 NSCLC): 1130 nM | TGI (NCI-H460 NSCLC): 2530 nM | GI50 (M14 melanoma): 798 nM | TGI (M14 melanoma): 2220 nM | GI50 (K-562 leukemia): 891 nM | TGI (K-562 leukemia): 2210 nM | GI50 (MDA-MB-435 melanoma): 1530 nM | TGI (MDA-MB-435 melanoma): 4170 nM | GI50 (UACC-257 melanoma): 1550 nM | TGI (UACC-257 melanoma): 3080 nM | GI50 (SW-620 colon): 1810 nM | TGI (SW-620 colon): 4150 nM | GI50 (NCI-H522 lung): 1030 nM | TGI (NCI-H522 lung): 2560 nM | GI50 (SF-295 CNS): 1050 nM | TGI (SF-295 CNS): 2400 nM | GI50 (MOLT-4 leukemia): 559 nM | TGI (MOLT-4 leukemia): 1860 nM | GI50 (A498 renal): 1160 nM | TGI (A498 renal): 2590 nM | GI50 (HOP-62 NSCLC): 1510 nM | TGI (HOP-62 NSCLC): 3600 nM | GI50 (HL-60(TB) leukemia): 641 nM | TGI (HL-60(TB) leukemia): 1880 nM | GI50 (U251 glioblastoma): 1320 nM | TGI (U251 glioblastoma): 2830 nM | GI50 (SF-539 CNS): 1020 nM | TGI (SF-539 CNS): 2330 nM | GI50 (A549 NSCLC): 2100 nM | TGI (A549 NSCLC): 7640 nM | GI50 (CCRF-CEM leukemia): 367 nM | TGI (CCRF-CEM leukemia): 1560 nM | GI50 (PC-3 prostate): 1370 nM | TGI (PC-3 prostate): 3320 nM | GI50 ([…]-0 renal): 554 nM | TGI (786-0 renal): 1900 nM | GI50 (OVCAR-3 ovarian): 1950 nM | TGI (OVCAR-3 ovarian): 6190 nM
